Source: a melting point compilation (Tetko et al.; mined from patent text by program, amines drawn as free bases though some values may be those of a salt)

SMILES | melting point [°C]
CN(C)C(=O)N1C[C@@H](O)[C@H](Oc2ccc(Cl)cc2)C1 (relative stereo) | 137 to 142
CC(C)(C)c1cc(SCc2ccc(-c3nnn[nH]3)cc2)cc(C(C)(C)C)c1 | 187 to 189
CC(=O)Oc1c(C(=O)N2CCc3ccccc32)c(=O)n2c3c(cc(N)cc13)OCC2 | 220 to 225
CC(C)C1(C)NC(c2ccccc2C(=O)N(C)C)=NC1=O (stereo not given) | 144 to 146
CCOC(=O)C(C(=O)OCC)(c1ccccc1)N1CCN(CCO)CC1 | 63 to 64
CC(C)(C)OC(=O)N1CCC(CCN2C(=O)C3(COc4cc5c(cc43)OCO5)c3ccccc32)CC1 (stereo not given) | 173 to 175
Cc1cc(-c2cc(C(F)F)n3ncc(I)c3n2)ccc1Cl | 144
CC(c1ccc(-c2ccccc2F)cc1)S(=O)(=O)CC(=O)O (stereo not given) | 144 to 146
O=C(O)CCc1cn(Cc2ccc(OCc3csc(-c4ccncc4)n3)cc2)cc1-c1ccccc1 | 149 to 150
C#CCCCn1ncc2c(N)c(C(=O)OCC=C)c(C)nc21 | 99.5
NC(=O)c1cccnc1N1CCN(CC(O)CO)CC1 (stereo not given) | 140 to 142
COC(=O)c1ccc(Cc2c[nH]c3ccc(C=O)cc23)c(OC)c1 | 117 to 120
CC(C)Oc1cc(-n2c(Cl)nc(C(F)(F)C(F)(F)F)cc2=O)c(F)cc1Cl | 55 to 58
O=S(=O)(O)c1cncc(Br)c1 | > 300
CN(C)C(=O)C(C)(C)n1cc(Cl)c(-c2ccccc2)n1 | 117 to 119
O=C(c1ccco1)N1CCN(c2nc3c(c(-c4ccc(F)cc4)n2)CCC3)CC1 | 124 to 125
CN(C)CCCOc1ccc(C(=O)NN)cc1F | 109 to 111
O=C(O)CCCc1ccc(-c2ccc(Cl)cc2)cc1 | 187 to 190
Cn1c(S(C)(=O)=O)nc2ccccc21 | 131 to 132
Cc1c(C)c2ccc(OCCCN3CCN(Cc4ccc(Cl)cc4)CC3)cc2[nH]c1=O | 143 to 144
CN(C)c1ccc2c(c1)C(=O)CC(c1ccc(O)cc1)=N2 | 321 to 323
OCCCCNc1nnc(-c2ccc(F)c(F)c2Nc2ccc(I)cc2F)o1 | 82 to 83
O=[N+]([O-])c1ccc2c3c([nH]c2c1)CCCCCC3 | 119 to 120
CCn1c(-c2ccc(Cl)cc2)nn(C)c1=O | 73 to 75
COC(=O)COc1ccc(Cl)cc1CC1CNC(=O)CN(S(=O)(=O)c2ccc(Cl)cc2)C1=O (stereo not given) | 138 to 140

SMILES | melting point [°C]
CN1C(=O)[C@@](NC(=O)Nc2cccc(N(C)c3nnn[nH]3)c2)(C2CCCCC2)N=Cc2ccccc21 | 222 to 225
CC(C)N1C(=S)NC(c2ccccc2)c2cc3c(cc21)OCO3 (stereo not given) | 214 to 218
C=C1CN(Cc2ccc(C(=O)Nc3ccccc3N)cc2)C(CC(=O)O)c2ccccc21 (stereo not given) | > 230
Cc1ccccc1CSc1c(O)cc(-c2ccccc2)oc1=O | 176 to 178
CC(C)[C@@H](C(=O)NCCCC(c1ccc(F)cc1)c1ccc(F)cc1)N(C)C1CCCCC1 | 82 to 86
CCC1(O)CC(=O)OCc2c1cc[nH]c2=O (stereo not given) | 118 to 119
CCc1cn2c(N)c(Cl)cc(C(=O)NC3CCN(CCCOC)CC3)c2n1 | 179
Cc1nc[nH]c1CSCCNC(N)=C[N+](=O)[O-] | 193 to 195
CCSC(=N)Nc1ccc(CCN(C)Cc2ccccc2)cc1 | 136 to 137
CCC1c2cccn2-c2ccc(C(F)(F)F)cc2N1S(=O)(=O)c1ccc(O)c(Cl)c1 (stereo not given) | 169 to 171
CC1(C)CCC(C)(C)c2cc(C#Cc3ccc(CO)cc3)ccc21 | 115 to 117
COc1ccc(NN=C(Sc2c(C)cccc2C)C(C)=O)cc1 | 107 to 109
CCOc1c(C(N)=O)n(-c2ccccc2)c2ccc(OC)cc12 | 143 to 144
O=C(O)C1=Cc2cc(Cl)c(Cl)c(Cl)c2OC1C(F)(F)F (stereo not given) | 222 to 225
Oc1ccc(O)c(-c2ccc(Cl)cc2Cl)c1 | 82 to 86
CN1CCN(CC(=O)Nc2cccc3c2C(=O)c2c-3n[nH]c2-c2ccc(N(C)C)cc2)CC1 | > 300
O=C(SCC(Cc1ccccc1)C(=O)O)c1ccccc1 (stereo not given) | 99 to 100
O=C1CCCc2c1[nH]c1ccc(Cl)cc21 | 226
CC(C)n1nnnc1-c1ccc(N)c([N+](=O)[O-])c1 | 126 to 128
CCNC(=O)C1=CSC(Cl)N1[Si](C)(C)C (stereo not given) | 101 to 103
Cc1nc(C)c(-c2cccc(OC3SCC(O)C(O)C3O)c2)s1 (stereo not given) | 158 to 164
CCOc1ccc(NC(=O)c2cn(CC)c3c2C(=O)CCC3)cc1 | 209 to 210
CCOC(=O)C(=CNc1ccc(F)c(F)c1OCC(C)OS(=O)(=O)c1ccc(C)cc1)C(=O)OCC (stereo not given) | 61 to 62
COc1ccc(N2CCN(Cc3coc4c(OC)cccc34)CC2)cc1 | 126 to 127
Cc1cc(C(F)(F)F)nc2nc(N)ccc12 | 255 to 257

SMILES | melting point [°C]
COc1cc(F)c2ncc(F)cc2c1 | 122
OC(CSCc1ccc(Cl)cc1)(Cn1cncn1)c1ccc(Cl)cc1Cl (stereo not given) | 106 to 107
COc1cc(Br)c(O)c([N+](=O)[O-])c1 | 116 to 118
CN(C)c1ccc(C2=NN(S(=O)(=O)c3ccc(I)cc3)CCC2)cc1 | 203 to 205
CCCC(CCC)(CCC)C(N)=O | 69
O=c1cc(-c2ccc(OCCOCCOCCOc3ccc(-c4cc(=O)c5c(O)cc(O)cc5o4)cc3)cc2)oc2cc(O)cc(O)c12 | 143 to 145
Cc1c(C(=O)O)c(CC(=O)O)n(C)c1C(=O)c1cccnc1 | 186 to 188
CN1C(=O)CN(C=O)C(c2ccccc2)c2cc(Cl)ccc21 (stereo not given) | 167 to 169
O=C1CCN(c2ccc(C=C3SC(=O)NC3=O)cc2Br)CC1 | > 210
Cc1cccc(C(Cl)=NNc2ccccc2)c1 | 66 to 67
Nc1ncc(Sc2ncccc2O)s1 | 128 to 130
CC(n1cnc2cc(-c3ccc(F)cc3)sc2c1=O)C(O)(Cn1cncn1)c1ccc(F)cc1F (stereo not given) | 118 to 127
O=c1[nH]c2ccc(O)cc2c(=O)n1CCN1CCC(c2c[nH]c3ccccc23)CC1 | 258
Cc1c(C)c(N2Cc3cc(Cl)c(Cl)cc3C2)c(C)c2c1OC(C)(C)C2c1ccccc1 (stereo not given) | 194 to 196
CS(=O)(=O)c1ccnc(Oc2cc(C#N)cc(C#N)c2)n1 | 189 to 191
O=[N+]([O-])c1cccc(-c2nc(Nc3cccc(Cl)c3)c3cc[nH]c3n2)c1 | > 250
NS(=O)(=O)c1ccc2c(c1)C(=NO)CCC2 | 162 to 164
O=C(O)C1CCc2c(Cc3ccc(Cl)cc3)cccc21 (stereo not given) | 127 to 129
CCCCNC(=O)OC1c2ncccc2C(=O)N1c1ccc2ccc(Cl)nc2n1 (stereo not given) | 215
Cc1c(NC(=O)CC(C)(C)C)cc2c(c1C)OC(C)(C)C2c1cccc(C(C)C)c1 (stereo not given) | 162 to 163
CCOC(=O)c1ccc(OCC)c(-c2ncc(C(=O)OCC)c(=O)[nH]2)c1 | 180 to 182
CC1CC(=O)C=C2CCC3C4CCC(=O)C4(C)CCC3C21C (stereo not given) | 154
CCOC(=O)c1sc(SC(C)C)c2c1CCC(NC(C)=O)C2=O (stereo not given) | 170 to 171
COc1ccc(NC(NC(c2ccc(CC(C)(C)C)s2)C2CCCCC2)=C2C(=O)OC(C)(C)OC2=O)c(OC)c1 (stereo not given) | 143 to 145
COc1n[nH]c(=O)n1O | 211

SMILES | melting point [°C]
COc1cccc(Nc2n[nH]c3ncn(-c4cccc(Cl)c4)c(=N)c23)c1 | 190 to 192
Cc1nc(N2CCc3nc(C)sc3CC2)c([N+](=O)[O-])c(=O)[nH]1 | > 200
COc1ccccc1N1CC(=O)Nc2c(C(N)=O)nc(-c3cccc(O)c3)nc21 | 336 to 338
CCOC(=O)c1cnc(OC)nc1Cl | 26 to 28
CCOC(=O)C1=C[C@@H](O)[C@H](NC(C)=O)[C@@H](NC(=O)OC(C)(C)C)C1 | 177 to 178
Cc1ccc([N+](=O)[O-])cc1Nc1nccc(-c2cncc(Br)c2)n1 | 206 to 208
N=C(N)NC(=O)Cn1c(Cc2ccco2)ccc1-c1ccccc1 | 80 to 82
NC(=O)c1ccc(CCN2CCC(=C3c4ccsc4CCn4ccnc43)CC2)cc1 | 196
COc1cccc(Oc2c(NS(=O)(=O)c3ccc(C(C)(C)C)cc3)nc(C)nc2OCCO)c1 | 139
OCCC(O)OCn1cc(Br)c2c(Cl)ncnc21 (stereo not given) | 152
COc1ccc(N2C(=O)N(c3ccc(OC)cc3)C(C)c3cnc(Nc4ccccc4)nc32)cc1 (stereo not given) | 228 to 234
BrC12CC3CC(CC(C3)C1=C1C3CC4CC(C3)CC1C4)C2 | 130 to 132
CCCOc1ccc(-c2ccc3c(c2)C(C)(C)CCC3(C)C)cc1-c1ccc(C(=O)O)cc1 | 199 to 204
CCCCCN(CCC12CC3CC(CC(C3)C1)C2)C(=O)NCC(Cc1ccccc1)Cc1ccncc1 (stereo not given) | 111 to 116
N#Cc1cc(N)ccc1N1CCC(N2CCC(O)CC2)CC1 | 175
O=CNc1ccccc1CCc1ccccn1 | 78 to 81
CC(C)(C)c1cc(CN2CCN(c3ccc(N)cc3)CC2)cc(C(C)(C)C)c1O | 152 to 154
c1csc(-c2ccc(-c3cc4ncnc(Nc5ccc6[nH]ccc6c5)c4s3)cc2)c1 | 165 to 178
CC(C)(C)OC(=O)Nc1ccc(C(=O)N2CCC(c3[nH]nc4c3C(=O)c3c(NC(=O)NN5CCOCC5)cccc3-4)CC2)cc1 | 212 to 214
O=C1c2ccccc2C(O)N1CCCOc1ccncc1 (stereo not given) | 124 to 125
c1ccc2c(c1)ccn2Nc1ncnc2c1ncn2-n1ccc2ccccc21 | 196 to 198
CC(C)(C)c1ccc(S(=O)(=O)C=CSc2ccccc2)cc1 | 258
CCC1(C)OC(c2ccc(S(N)(=O)=O)cc2)=C(c2ccco2)C1=O (stereo not given) | 154 to 155
Cc1c(C(=O)C(C)Br)ccn1S(=O)(=O)c1ccccc1 (stereo not given) | 99 to 103
O=C(Nc1ccc(C(=O)N2C[C@@H]3CCCN3C(=S)c3ccccc32)cc1)c1ccccc1-c1ccccc1 | 234 to 236
